In PMC10711165, “DNA conformational dynamics in the context-dependent non-CG CHH methylation by plant methyltransferase DRM2” (The Journal of Biological Chemistry, 2023):

Target: T1, DRM2 MTase domain (DOMAINS REARRANGED METHYLTRANSFERASE 2) (Arabidopsis thaliana, UniProt Q9M548)
T1 construct: MTase domain, residues 270-626, His6-SUMO tag cleaved by ULP1, expressed in E. coli BL21 DE3 (RIL); residues 275-626 traced in crystal
T1 sequence (Q9M548 270-626): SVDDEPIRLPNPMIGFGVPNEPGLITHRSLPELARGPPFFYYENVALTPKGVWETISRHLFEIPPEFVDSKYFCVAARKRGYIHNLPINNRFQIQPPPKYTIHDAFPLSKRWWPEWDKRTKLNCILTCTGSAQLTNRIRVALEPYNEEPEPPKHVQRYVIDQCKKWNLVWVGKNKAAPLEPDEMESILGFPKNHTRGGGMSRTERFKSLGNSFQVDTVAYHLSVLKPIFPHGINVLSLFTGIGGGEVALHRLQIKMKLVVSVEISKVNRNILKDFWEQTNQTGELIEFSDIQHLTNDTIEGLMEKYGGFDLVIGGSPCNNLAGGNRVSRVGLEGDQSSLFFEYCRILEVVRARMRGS
Assay: X-ray crystallography, […] A
Assay type: binding
Conditions: covalent complex of protein C587 with 18-mer 5-fluorocytosine CTA DNA duplex; SAH at the cofactor site; crystals at 4 °C, 1 mM SAH

## Nc1ncnc2c1ncn2[C@@H]1O[C@H](CSCC[C@H](N)C(=O)O)[C@@H](O)[C@H]1O [S-adenosyl-homocysteine]
  X-ray crystallography, 2.91 A: The crystal structure of the DRM2-CTA complex bound to cofactor by-product S-adenosyl-homocysteine (SAH)
